Data set [1] has as its system K562 DOX-R cells. The experiment in a line: Viability assay (Annexin V/7AAD), K562 DOX-R. Conditions: for viability on co-treatment with ponatinib / IC50: K562 DOX-R; for viability on co-treatment with ponatinib: compared to control line; for IC50: read-out: TKI viability assay IC50. The format is cell-based, human. As to the method: (§1) Cells were removed from drug-containing culture medium, washed and re-cultured in fresh media (with testing drug) for 72 hours. Cells then were stained with 7-Amino-actinomycin D (7AAD) and Annexin V-PE. Flow cytometry (BD LSRFortessaTM X-20 with high-throughput platform) was performed to determine cell viability: cells stained positive for Annexin V-PE and 7AAD were considered to be apoptotic or dead respectively. The data were analysed using FCS Express software (DeNovo Software, Los Angeles, California, USA).

The test system of data set [2] is Axl. Conditions: no reference given; cited from earlier work.
Data set [3] concerns K562-R cells. In words: Viability assay (Annexin V/7AAD), K562-R. The following applies: for viability on co-treatment with ponatinib / IC50: K562-R; for viability on co-treatment with ponatinib: compared to control line; for IC50: read-out: TKI viability assay IC50. Type of data set: cell-based, human. As to the method:
as §1

In data set [4] the test system is Axl. Further details: method as in PMID 20080645, PMID 16230391, PMID 20603615, PMID 20145120. The following applies: cited from earlier work.
Data set [5] deals with K562 DOX 55D-R cells. The experiment in a line: cells. Conditions: Homo sapiens, K562, read-out: TKI viability assay IC50. As to the method:
as §1

Data set [6] has as its system K562 T315I-R cells. In words: cells. The following applies: Homo sapiens, K562, read-out: TKI viability assay IC50. As to the method: as §1
Data set [7] deals with K562 DOX-R-scramble CTL cells. In words: Viability assay, scramble shRNA K562 DOX-R. Type of data set: cell-based, human. Conditions: K562 DOX-R scrambled shRNA control, 10 nM ponatinib, 72 hours, n=3. As to the method: (§2) Stable AXL knock-down K562-R-AXL KD, and K562 DOX-R-AXL KD cell lines were generated, as well as the scramble control lines K562-R-scramble CTL, and K562 DOX-R-scramble CTL.
as §1
(§3) The GFP level and Axl expression level were measured after fluorescence-activated cell sorting (FACS) and before each experiment to ensure purity.

Data set [8] deals with K562-R-scramble CTL cells. In words: Viability assay, scramble shRNA K562-R. The format is cell-based, human. The following applies: K562-R scrambled shRNA control, 10 nM ponatinib, 72 hours, n=3. As to the method:
as §2, §1, §3

Data set [9] relates to K562-R-AXL KD cells. The experiment in a line: Viability assay, AXL knock-down K562-R. Conditions: 10 nM ponatinib, 72 hours, n=3. The format is cell-based, human. As to the method: as §2, §1, §3
The subject of data set [10] is K562 cells. The experiment in a line: Viability assay (Annexin V/7AAD), K562 control. The format is cell-based, human. The following applies: 200 nM ponatinib, three days. As to the method:
(§4) Flow cytometry (BD LSRFortessaTM X-20 with high-throughput platform) was performed to determine cell viability: cells stained positive for Annexin V-PE and 7AAD were considered to be apoptotic or dead respectively. […]

The conditions of data set [11]: 45 mg once daily; cited from earlier work.
In data set [12] the test system is K562 DOX-R-AXL KD cells. The experiment in a line: Viability assay, AXL knock-down K562 DOX-R. The format is cell-based, human. Conditions: 10 nM ponatinib, 72 hours, n=3. As to the method: as §2, §1, §3
In data set [13] the test system is K562 DOX cells. In words: Viability assay (Annexin V/7AAD), K562 DOX control. The following applies: 200 nM ponatinib, three days. Type of data set: cell-based, human. As to the method:
as §4

Entries after “also recorded” stand apart in the source; their conditions may differ.

On to `CCOc1ccn(-c2ccc(F)cc2)c(=O)c1C(=O)Nc1ccc(Oc2ccnc(N)c2Cl)c(F)c1` [BMS-777607], for which the “viability on co-treatment with ponatinib” value was “significantly reduced; also recorded: induced cell death significantly” in data set [1] (12.5 μM BMS777607 + 200 nM ponatinib, n=4, p<0.01) and “significantly reduced; also recorded: induced cell death significantly” in data set [3] (12.5 μM BMS777607 + 200 nM ponatinib, n=3, p=0.03). The “potency against Axl relative to MET” value in data set [2] is listed as 3 times.
Consider `Nc1nc(Nc2ccc3c(c2)CCC(N2CCCC2)CC3)nn1-c1cc2c(nn1)-c1ccccc1CCC2` (stereo not drawn) [R428], for which the “specificity in targeting Axl over the other TAM family members (Mer and Tyro3)” value in data set [4] is 50 to 100 fold. Also, the “viability on co-treatment with ponatinib” value is “significantly reduced; also recorded: induced cell death significantly” in data set [1] (1 μM R428 + 200 nM ponatinib, n=4, p=0.02) and “significantly reduced; also recorded: induced cell death significantly” in data set [3] (1 μM R428 + 200 nM ponatinib, n=3, p=0.02).
Usually IC50 stands for the concentration needed to halve the response being measured. As to `Cc1nc(Nc2ncc(C(=O)Nc3c(C)cccc3Cl)s2)cc(N2CCN(CCO)CC2)n1` [dasatinib], the IC50 is greater than 0.2 µM in data set [1] (Homo sapiens); greater than 0.2 µM in data set [5]; greater than 0.2 µM in data set [6]; greater than 0.2 µM in [3] (Homo sapiens, K-562R).
As for `Cc1cn(-c2cc(NC(=O)c3ccc(C)c(Nc4nccc(-c5cccnc5)n4)c3)cc(C(F)(F)F)c2)cn1` [nilotinib], the IC50 was greater than 1 µM in [1] (Homo sapiens); greater than 1 µM in data set [5]; greater than 1 µM in data set [6]; greater than 1 µM in [3] (Homo sapiens, K-562R).
Usually viability stands for a read-out of living cells in per cent, often relative to untreated cells. Read a low viability as more harm to the cells. With `Cc1ccc(C(=O)Nc2ccc(CN3CCN(C)CC3)c(C(F)(F)F)c2)cc1C#Cc1cnc2cccnn12` [ponatinib, 3-[2-(imidazo[1,2-b]pyridazin-3-yl)ethynyl]-4-methyl-N-{4-[(4-methylpiperazin-1-yl)methyl]-3-(trifluoromethyl)phenyl}benzamide], the viability at 0.2 µM in data set [1] (Homo sapiens, K562, 72 h) is greater than 75%; in data set [3] (Homo sapiens, K-562R, 72 h), greater than 75%. In addition, the reduction in viability is 16% in data set [7], 22% in data set [8], 68% in data set [9] and 53% in data set [12]. Besides, the “sensitivity to ponatinib (viability)” value in [10] and in data set [13] was “demonstrated sensitivity” each time. The “medium human peak plasma level” value in data set [11] is given as 145 nM. Also, the “medium human trough plasma level” value in data set [11] was 64 nM.

The record behind these values is PMC6205183 (Oncotarget, 2018).
